Where two headings read alike, the source gives them in different places.
How the values were obtained:
[1] = Brain Concentration in Mice; type: in vivo; conditions: mouse, mice (C57BL/6), read-out: Unbound-Brain Concentration at 2 h at 1 mg/kg
Protocol: Brain Concentration in Mice
Test compounds were orally administered to mice (C57BL/6) at 1 or 3 mg/kg. Brain samples were collected 2 h after the administration and homogenized with 3-fold volumes of distilled water.
LC-MS/MS analysis was conducted as specified below. Standard calibration samples were prepared using the same matrix and analyzed in the same manner.
Standard calibration samples were analyzed to calculate a regression equation from the peak area ratio (test compound/internal standard). The peak area ratio was determined for a measurement sample and assigned to the regression equation to calculate an assay value.

KDM5A = KDM5A (Homo sapiens (Human), UniProt P29375); assay: Biochemical KDM5A Inhibition Assay (HTRF); conditions: KDM5A protein, biotin-labelled H3K4-Me3 substrate
Protocol: Biochemical KDM5A Inhibition Assay
Using 384-well white Greiner784075 (Greiner), representative compounds were characterized for their inhibition of KDM5A using HTRF® technology (Cisbio Bioassays). Briefly, the test compounds, reference compounds, and DMSO control (typical compound concentration range 1 μM-[…], final assay concentration (FAC*) of DMSO 0.5%) were added to 384-well plate by the Echo® acoustic dispensing platform (Labcyte). Five (5) 1l of KDM5A protein (produced by the method described in Nat Chem Biol 12, 531-538 (2016)). (5-20 nM FAC*) in assay buffer (50 mM MES, 50 mM NaCl, 1 mM TCEP, 0.01% v/v Tween 20, 0.03% BSA, pH 6.5) was added to wells and plates were incubated for 10-20 minutes at 25 degrees celsius. Then, 5 μl of alpha-ketoglutaric acid (100 μM FAC*), biotin-labelled H3K4-Me3 substrate (Anaspec Cat #AS-64357-1; 200 nM FAC*), Fe(II)SO4 (100 μM FAC*) and ascorbic acid (2 mM FAC*) in assay buffer was added to wells and plates were incubated for 20 minutes at room temperature. The reaction was stopped with the addition of 10 μl of anti-H3K4-Me2-Eu(K) (Cisbio Bioassays Cat #61KA2KAH; 0.75 nM FAC**)+Streptavidin XL665 (Cisbio Bioassays Cat #610SAXLB; 25 nM FAC**) in HTRF detection buffer (Cisbio Bioassays Cat #62SDBRDF). The mixture was incubated for 30 minutes at room temperature before 340 nm excitation and measurement of dual emission at 620 nm and 665 run. *FAC: final assay concentration calculated based on 10 μl of the assay buffer**FAC: final assay concentration calculated based on 20 μl of the detection buffer
The raw data (a 665 nm and a 620 nm reading from each well) for individual assay plates were analyzed. The ratio of emissions was calculated using the following calculation: Ratio=(665 nm emission/620 nm emission)×10000. […] Compound IC50 values were calculated from graphs of % inhibition plotted against compound concentration, using a four parameter curve fit. [Results]

[2] = Metabolic Stability in Human Liver Microsomes; type: in vitro ADME
Protocol: Metabolic Stability in Human Liver Microsomes
Human liver microsome (BD Gentest Corporation, Cat No. #452161) incubations were conducted in duplicate in 96-well plates. Each well contains 40 μL of 0.1 M potassium phosphate buffer (pH 7.4), 4.125 mM MgCl2, 0.625 mg/mL liver microsomes, and test compound (1.25 μM). After 5-min preincubation at 37° C., 10 uL of 5.0 mM NADPH in 0.1M potassium phosphate buffer was added to initiate the enzymatic reaction. The final component concentrations are 0.1M potassium phosphate buffer (pH 7.4), 1.0 mM NADPH, 3.3 mM MgCl2, 0.5 mg/mL liver microsomes, and test compound (1.0 μM). Reactions were terminated at 0 and 60 min by adding 200 μL of ice-cold acetonitrile containing internal standard.
LC-MS/MS analysis was conducted as specified below.
The remaining at 60 min (%) of test compound was calculated from the peak area ratio (test compound/internal standard) of samples collected 0 and 60 min after the start of the reaction according to the formula described below. Remaining at 60 min (%)=peak area ratio of sample collected at 60 min/peak area ratio of sample collected at 0 min×100 [Results]

[3] = po, orally administered, 1 mg/kg, brain 2 h after administration
[4] = 0.5 mg/mL liver microsomes, 1.0 μM test compound, 1.0 mM NADPH, 37° C., 60 min
[5] = human, microsomes, 1 h, 1 μM, pH 7.4

Sequence of KDM5A (P29375 whole entry): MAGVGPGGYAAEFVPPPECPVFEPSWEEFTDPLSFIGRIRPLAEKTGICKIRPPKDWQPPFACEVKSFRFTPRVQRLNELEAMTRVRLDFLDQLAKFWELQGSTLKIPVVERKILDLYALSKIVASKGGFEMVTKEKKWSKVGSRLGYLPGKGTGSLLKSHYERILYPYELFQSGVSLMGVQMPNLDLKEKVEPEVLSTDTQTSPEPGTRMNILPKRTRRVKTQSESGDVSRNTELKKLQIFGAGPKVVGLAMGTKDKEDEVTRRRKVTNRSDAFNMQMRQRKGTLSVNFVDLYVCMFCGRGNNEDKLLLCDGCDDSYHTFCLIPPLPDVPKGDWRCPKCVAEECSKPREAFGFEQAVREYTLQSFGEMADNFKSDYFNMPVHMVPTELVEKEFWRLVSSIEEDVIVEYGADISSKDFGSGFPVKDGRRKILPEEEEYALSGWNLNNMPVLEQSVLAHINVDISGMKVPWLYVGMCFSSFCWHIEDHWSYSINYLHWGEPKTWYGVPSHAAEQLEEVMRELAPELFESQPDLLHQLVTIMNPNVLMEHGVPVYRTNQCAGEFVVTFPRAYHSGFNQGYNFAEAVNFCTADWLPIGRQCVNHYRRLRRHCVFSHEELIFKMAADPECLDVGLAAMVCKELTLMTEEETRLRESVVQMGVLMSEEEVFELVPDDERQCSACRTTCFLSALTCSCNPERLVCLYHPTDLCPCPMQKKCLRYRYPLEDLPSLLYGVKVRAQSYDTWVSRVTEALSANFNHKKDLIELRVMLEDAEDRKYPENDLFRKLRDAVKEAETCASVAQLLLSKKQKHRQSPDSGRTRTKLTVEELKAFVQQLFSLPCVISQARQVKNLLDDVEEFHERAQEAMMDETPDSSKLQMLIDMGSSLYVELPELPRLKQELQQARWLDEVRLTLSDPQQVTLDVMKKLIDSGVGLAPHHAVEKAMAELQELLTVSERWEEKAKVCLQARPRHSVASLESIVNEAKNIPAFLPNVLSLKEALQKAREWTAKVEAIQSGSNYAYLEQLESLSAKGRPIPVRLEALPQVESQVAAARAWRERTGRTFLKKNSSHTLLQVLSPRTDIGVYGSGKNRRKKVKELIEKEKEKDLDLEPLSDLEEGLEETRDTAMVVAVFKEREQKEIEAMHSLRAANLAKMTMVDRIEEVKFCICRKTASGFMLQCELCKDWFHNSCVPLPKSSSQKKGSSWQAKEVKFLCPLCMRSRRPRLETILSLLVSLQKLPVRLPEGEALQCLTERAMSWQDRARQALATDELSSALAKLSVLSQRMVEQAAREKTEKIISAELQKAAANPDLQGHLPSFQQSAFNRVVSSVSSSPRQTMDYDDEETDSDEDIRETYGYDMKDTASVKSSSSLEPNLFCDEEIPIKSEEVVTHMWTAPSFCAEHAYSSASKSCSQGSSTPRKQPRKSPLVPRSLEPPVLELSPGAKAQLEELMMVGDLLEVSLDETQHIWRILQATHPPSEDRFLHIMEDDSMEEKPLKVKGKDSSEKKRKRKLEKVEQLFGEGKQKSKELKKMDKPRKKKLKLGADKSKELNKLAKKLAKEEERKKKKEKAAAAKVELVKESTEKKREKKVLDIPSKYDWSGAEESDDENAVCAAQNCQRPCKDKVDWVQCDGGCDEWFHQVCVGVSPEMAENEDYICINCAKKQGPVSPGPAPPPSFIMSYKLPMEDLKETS

Row | SMILES | IC50 (KDM5A) | Metabolic stability in human liver microsomes (% remaining at 60 min) [2, 5] | concentration at 2 h ([1]; brain, oral, 2 h, values with * obtained by proportional calculation from the 3 mg/kg data) | concentration at 2 h [1, 3] | Metabolic stability in human liver microsomes (% remaining at 60 min) [2, 4]
1 | O=C(c1cn(C2CC2)cn1)N1C[C@@H]2[C@H](C1)[C@H]2C1=NOC2(CC2)C1 [Example 51, (1-cyclopropyl-1H-imidazol-4-yl)[(1R,5S,6r)-6-(4-oxa-5-azaspiro[2.4]hept-5-en-6-yl)-3-azabicyclo[3.1.0]hex-3-yl]methanone] | 20 nM | – | – | 55.3 ng/g | 95%
2 | CC(C)n1cnc(C(=O)N2C[C@@H]3[C@H](C2)[C@@]3(C)C2=NOC(C)(C)C2)c1 [Example 81, [(1R,5S,6r)-6-(5,5-dimethyl-4,5-dihydro-1,2-oxazol-3-yl)-6-methyl-3-azabicyclo[3.1.0]hex-3-yl](1-isopropyl-1H-imidazol-4-yl)methanone] | 60 nM | 100% | – | 21.9 ng/g | –
3 | C[C@]1(C2=NOC3(CC3)C2)[C@@H]2CN(C(=O)c3cn(C4CC4)cn3)C[C@@H]21 [Example 85, (1-cyclopropyl-1H-imidazol-4-yl)[(1R,5S,6r)-6-methyl-6-(4-oxa-5-azaspiro[2.4]hept-5-en-6-yl)-3-azabicyclo[3.1.0]hex-3-yl]methanone] | 20 nM | – | – | 76.7 ng/g | 98%

Further lines, with some results ahead:

Row | IC50 (KDM5A) | Metabolic stability in human liver microsomes (% remaining at 60 min) [2, 5] | concentration at 2 h ([1]; brain, oral, 2 h, values with * obtained by proportional calculation from the 3 mg/kg data) | SMILES | concentration at 2 h [1, 3] | Metabolic stability in human liver microsomes (% remaining at 60 min) [2, 4]
4 | 30 nM | 104% | – | CC1(C)CC([C@@]2(C)[C@@H]3CN(C(=O)c4cn(C5CC5)cn4)C[C@@H]32)=NO1 [Example 82, (1-cyclopropyl-1H-imidazol-4-yl)[(1R,5S,6r)-6-(5,5-dimethyl-4,5-dihydro-1,2-oxazol-3-yl)-6-methyl-3-azabicyclo[3.1.0]hex-3-yl]methanone] | 57.4 ng/g | –
5 | 70 nM | 95% | 39.5 ng/g | CC(C)c1cc(C(=O)N2C[C@@H]3[C@H](C2)[C@H]3C2=NOC(C)(C)C2)n[nH]1 [Example 88, [(1R,5S,6r)-6-(5,5-dimethyl-4,5-dihydro-1,2-oxazol-3-yl)-3-azabicyclo[3.1.0]hex-3-yl](5-isopropyl-1H-pyrazol-3-yl)methanone] | – | –

Reference: US11691968B2, “Compound having KDM5 inhibitory activity and pharmaceutical use thereof” (ONO PHARMACEUTICAL CO., LTD., priority 2020, dated 2023)
